ChEMBL document CHEMBL5579865, “Discovery of Broad-Spectrum Herpes Antiviral Oxazolidinone Amide Derivatives and Their Structure-Activity Relationships” (ACS Med Chem Lett, 2024)
In brackets after ≈: the same amount, converted by molar mass.

Key:
[1] = Inhibition of HCMV DNA polymerase extracted from baculovirus infected Sf21 cells using Heterodimeric nucleic acid as substrate preincubated with enzyme for 30 mins followed by substrate and dATP addition measured after 60 mins by biotinylated UTP incorporation based AlphaLISA assay; set-up: species or system Human betaherpesvirus 5
[2] = Inhibition of VZV DNA polymerase extracted from baculovirus infected Sf21 cells using Heterodimeric nucleic acid as substrate preincubated with enzyme for 30 mins followed by substrate and dATP addition measured after 60 mins by biotinylated UTP incorporation based AlphaLISA assay; set-up: species or system Human alphaherpesvirus 3
Human betaherpesvirus 5 = test: Antiviral activity against HCMV AD169 infected in human MRC5 cells assessed as reduction in viral replication incubated for 72 hrs in presence of 50 % serum by qRT-PCR analysis; assay type: functional, organism-based
Human alphaherpesvirus 3 = test: Antiviral activity against VZV Street infected in human MeWo cells assessed as reduction in viral replication incubated for 72 hrs by qRT-PCR analysis; assay type: functional, organism-based
Human alphaherpesvirus 1 = test: Antiviral activity against HSV-1 F strain infected in African green monkey Vero cells assessed as reduction in viral replication incubated for 72 hrs by qRT-PCR analysis; assay type: functional, organism-based
Human alphaherpesvirus 2 = test: Antiviral activity against HSV-2 G strain infected in African green monkey Vero cells assessed as reduction in viral replication incubated for 72 hrs by qRT-PCR analysis; assay type: functional, organism-based
[3] = Solubility in PBS at pH 7; assay type: physicochemical
[4] = Metabolic stability in human liver microsomes assessed as intrinsic clearance; assay type: ADME, Microsome; conditions: read-out: CLH
[5] = Human betaherpesvirus 5, AD169, MRC5, 72 h, read-out: EC50
[6] = Human alphaherpesvirus 3, Street, MeWo, 72 h, read-out: EC50
[7] = Human alphaherpesvirus 1, F strain, Vero, 72 h, read-out: EC50
[8] = Human alphaherpesvirus 2, G strain, Vero, 72 h, read-out: EC50

Row | Structure (SMILES) | IC50 [1] | IC50 [2] | EC50 (Human betaherpesvirus 5) | EC50 (Human alphaherpesvirus 3) | EC50 (Human alphaherpesvirus 1) | EC50 (Human alphaherpesvirus 2) | EC50 (Human betaherpesvirus 5; [5]) | EC50 (Human alphaherpesvirus 3; [6]) | EC50 (Human alphaherpesvirus 1; [7]) | EC50 (Human alphaherpesvirus 2; [8]) | solubility [3] | CLint scaled [4]
1 | COc1cc(NC(=O)Cc2ccc(Cl)cc2)c(C)cc1C[C@H]1COC(=O)N1 | 10.8 µM | 13.9 µM | Not Active | Not Active | Not Active | Not Active |  |  |  |  |  | 
2 | COc1cc(NC(=O)Cc2ccc(C#N)c(F)c2)ccc1C[C@H]1COC(=O)N1 | 0.046 µM | 0.028 µM |  |  |  |  | 0.141 µM | 0.265 µM | 0.494 µM | 0.551 µM |  | 
3 | O=C(Cc1ccc(Cl)cc1)Nc1ccc(CC2COC(=O)N2)cn1 (racemic) | 4.1 µM | 2.11 µM |  |  |  |  | 61.7 µM | 4.46 µM | 13.3 µM | 11.4 µM |  | 
4 | O=C(Cc1ccc(Cl)cc1)Nc1ccc(CC(F)(F)F)cc1 | 133 µM | 77.9 µM |  |  |  |  |  |  |  |  |  | 
5 | Cc1nccn1Cc1ccc(NC(=O)Cc2ccc(Cl)cc2)cc1 | 55 µM | 34.8 µM |  |  |  |  |  |  |  |  |  | 
6 | O=C(Cc1ccc(Cl)cc1)Nc1ccc(Cn2cncn2)cc1 | 12.1 µM | 4.5 µM |  |  |  |  |  |  |  |  |  | 
7 | O=C1NC(Cc2ccc(C(=O)NCc3ccc(Cl)cc3)cc2)CO1 (centres undefined) | 116 µM | 26 µM | Not Active | Not Active | Not Active | Not Active |  |  |  |  |  | 
8 | COc1cc(NC(=O)Cc2ccc(Cl)c(F)c2)ccc1C[C@H]1COC(=O)N1 | 0.097 µM | 0.036 µM |  |  |  |  | 1.94 µM | 0.126 µM | 0.299 µM | 0.647 µM |  | 
9 | N#CC1(c2ccc(NC(=O)Cc3ccc(Cl)cc3)cc2)CC1 | 8.3 µM | 2.7 µM |  |  |  |  |  |  |  |  |  | 
10 | O=C(Cc1ccc(Cl)cc1)Nc1ccc(CC2COC(=O)N2)cc1 (racemic) | 0.34 µM | 0.18 µM |  |  |  |  | 12.8 µM | 2.13 µM | 0.26 µM | 3.85 µM | 7 µM (≈ 2.41 µg/mL) | 
11 | O=C1N[C@@H](Cc2ccc(NS(=O)(=O)Cc3ccc(Cl)cc3)cc2)CO1 | 104 µM | 12.7 µM | Not Active | Not Active | Not Active | Not Active |  |  |  |  |  | 
12 | COc1cc(NC(=O)C2CCc3cc(Cl)ccc32)ccc1C[C@H]1COC(=O)N1 (some centres undefined) | 0.026 µM | 0.02 µM |  |  |  |  | 0.56 µM | 0.24 µM | 0.249 µM | 0.384 µM | 57 µM (≈ 22.8 µg/mL) | 63 mL/min/kg
13 | O=C(Cc1ccc(Cl)cc1)Nc1ccc(C(=O)c2ccccc2)cc1 | 18 µM | 24.7 µM |  |  |  |  |  |  |  |  |  | 
14 | CC(C)(c1ccccc1)c1ccc(NC(=O)Cc2ccc(Cl)cc2)cc1 | > 133 µM | > 133 µM |  |  |  |  |  |  |  |  |  | 
15 | O=C(Cc1ccc(Cl)cc1)Nc1cc(Cl)c(C[C@H]2COC(=O)N2)cn1 | 6.31 µM | 2.87 µM |  | Not Active |  |  | 99 µM |  | 33.7 µM | 64.5 µM |  | 
16 | COc1cc(NC(=O)Cc2ccc(C#N)cc2)ccc1C[C@H]1COC(=O)N1 | 0.052 µM | 0.015 µM |  |  |  |  | 0.186 µM | 0.131 µM | 0.297 µM | 0.789 µM |  | 
17 | CS(=O)(=O)c1cccc(Cc2ccc(NC(=O)Cc3ccc(Cl)cc3)cc2)c1 | 13.3 µM | 12.5 µM |  |  |  |  |  |  |  |  |  | 
18 | COc1cc(NC(=O)Cc2ccc(F)c(Cl)c2)ccc1C[C@H]1COC(=O)N1 | 0.357 µM | 0.236 µM |  |  |  |  | 7.07 µM | 0.441 µM | 2.15 µM | 5.25 µM |  | 

Row | Structure (SMILES) | IC50 [1] | IC50 [2] | EC50 (Human betaherpesvirus 5) | EC50 (Human alphaherpesvirus 3) | EC50 (Human alphaherpesvirus 1) | EC50 (Human alphaherpesvirus 2) | EC50 (Human betaherpesvirus 5; [5]) | EC50 (Human alphaherpesvirus 3; [6]) | EC50 (Human alphaherpesvirus 1; [7]) | EC50 (Human alphaherpesvirus 2; [8]) | solubility [3] | CLint scaled [4]
19 | O=C(Cc1ccc(Cl)cc1Cl)Nc1ccc(C[C@H]2COC(=O)N2)cc1 | 0.13 µM | 0.13 µM |  |  |  |  | 1.34 µM | 0.54 µM | 0.81 µM | 0.91 µM |  | 
20 | O=C(Cc1ccc(Cl)cc1)Nc1cnc(C[C@H]2COC(=O)N2)cn1 | 6.5 µM | 2.09 µM |  | Not Active |  |  | 94 µM |  | 25.7 µM | 44.8 µM |  | 
21 | CC(=O)c1ccc(NC(=O)Cc2ccc(Cl)cc2)cc1 | 6.6 µM | 4.8 µM |  |  |  |  |  |  |  |  |  | 
22 | COc1cc(NC(=O)Cc2ccc(Cl)cc2F)ccc1C[C@H]1COC(=O)N1 | 0.045 µM | 0.017 µM |  |  |  |  | 1.13 µM | 0.023 µM | 0.214 µM | 0.589 µM | 153 µM (≈ 60.1 µg/mL) | 16 mL/min/kg
23 | COc1cc(NC(=O)Cc2c(F)cc(Cl)cc2F)ccc1C[C@H]1COC(=O)N1 | 0.069 µM | 0.046 µM |  |  |  |  | 0.614 µM | 0.182 µM | 0.564 µM | 0.874 µM | 7 µM (≈ 2.88 µg/mL) | 
24 | O=C(Cc1ccc(Cl)cc1)Nc1ccc(Cc2ccccc2)cc1 | > 133 µM | 67 µM |  |  |  |  |  |  |  |  |  | 
25 | O=C(Cc1ccc([N+](=O)[O-])cc1)Nc1ccc(C[C@H]2COC(=O)N2)cc1 | 0.176 µM | 0.079 µM |  |  |  |  | 0.72 µM | 0.185 µM | 0.177 µM | 0.473 µM |  | 
26 | O=C1N[C@@H](Cc2ccc3c(c2)OCC(Cc2ccc(Cl)cc2)N3)CO1 (some centres undefined) | 0.49 µM | 0.35 µM |  |  |  |  | 13.1 µM | 3.06 µM | 3.12 µM | 5.24 µM |  | 
27 | O=C1CC(c2ccc(NC(=O)Cc3ccc(Cl)cc3)cc2)CN1 (racemic) | 23.3 µM | 8.2 µM |  |  |  |  |  |  |  |  |  | 
28 | CC(C(=O)Nc1ccc(C[C@H]2COC(=O)N2)cc1)c1ccc(Cl)cc1 (some centres undefined) | 7.19 µM | 7.73 µM | Not Active | Not Active | Not Active | Not Active |  |  |  |  |  | 
29 | CCOc1cc(NC(=O)Cc2ccc(Cl)cc2)ccc1C[C@H]1COC(=O)N1 | 0.045 µM | 0.018 µM |  |  |  |  | 1.2 µM | 0.085 µM | 0.097 µM | 0.037 µM | 76 µM (≈ 29.6 µg/mL) | 29 mL/min/kg
30 | O=C(Cc1ccc(Cl)cc1)Nc1ccc(C[C@@H]2COC(=O)N2)cc1 | 2.81 µM | 0.79 µM |  |  |  |  | 55.6 µM | 14.8 µM | 7.3 µM | 8.69 µM |  | 
31 | CN(C(=O)Cc1ccc(Cl)cc1Cl)c1ccc(C[C@H]2COC(=O)N2)cc1 | 14.6 µM | 14.1 µM | Not Active | Not Active | Not Active | Not Active |  |  |  |  |  | 
32 | C[C@H](c1ccc(NC(=O)Cc2ccc(Cl)cc2)cc1)[C@H]1COC(=O)N1 | 16.7 µM | 6.5 µM | Not Active | Not Active | Not Active | Not Active |  |  |  |  |  | 
33 | O=C(Cc1ccc(Cl)cc1)Nc1ccc(C[C@H]2COC(=O)N2)cc1 | 0.25 µM | 0.18 µM |  |  |  |  | 4.32 µM | 0.5 µM | 0.53 µM | 1.34 µM |  | 
34 | CN1C(=O)OC[C@@H]1Cc1ccc(NC(=O)Cc2ccc(Cl)cc2)cc1 | 2.55 µM | 1.84 µM | Not Active | Not Active | Not Active | Not Active |  |  |  |  |  | 
35 | N#CCc1ccc(NC(=O)Cc2ccc(Cl)cc2)cc1 | 50.8 µM | 40.9 µM |  |  |  |  |  |  |  |  |  | 
